One experiment deals with T1, Aurora A (Homo sapiens, UniProt O14965).
T1 construct: histidine tag (N); made in house; host or cells: Escherichia coli BL21-CodonPlus(DE3)-RIL
T1 sequence (O14965 1-403): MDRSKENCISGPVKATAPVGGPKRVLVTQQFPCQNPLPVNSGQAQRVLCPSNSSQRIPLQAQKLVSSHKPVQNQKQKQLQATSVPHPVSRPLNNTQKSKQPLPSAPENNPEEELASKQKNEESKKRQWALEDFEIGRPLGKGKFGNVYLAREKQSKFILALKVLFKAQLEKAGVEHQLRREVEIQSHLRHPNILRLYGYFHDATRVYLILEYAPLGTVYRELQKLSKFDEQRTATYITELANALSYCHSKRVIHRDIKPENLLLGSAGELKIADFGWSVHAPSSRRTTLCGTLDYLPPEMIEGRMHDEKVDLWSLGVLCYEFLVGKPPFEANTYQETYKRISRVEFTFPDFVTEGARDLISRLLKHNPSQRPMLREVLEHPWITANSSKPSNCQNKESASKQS
Briefly: Aurora A inhibitory action (33P-ATP Kemptide phosphorylation, filter assay). The format is biochemical. The settings on record: His-tagged Aurora A, 100 μM Kemptide, 20 μM ATP, 30° C., 20 minutes. From the text: cDNA of Aurora A having histidine tag fused at the amino terminal was integrated into an expression vector, which was then highly expressed in Escherichia coli BL21-CodonPlus(DE3)-RIL cells. The Escherichia coli cells were recovered and solubilized, and then the histidine-tagged Aurora A protein was adsorbed onto a nickel chelate column and eluted from the column with imidazole. The active fraction was desalted with a desalting column to give a pure enzyme.
For measurement of the activity of Aurora A, the substrate used was Kemptide (Leu-Arg-Arg-Ala-Ser-Leu-Gly) (SEQ.ID.NO.: 1), a synthetic peptide purchased from Sigma-Aldrich, Inc. [Certificate of analysis (Upstate, Inc.)].
Reaction was conducted by a partial modification of a method by Upstate, Inc. [Kinase Profiler™ Assay Protocols]. The amount of the reaction liquid was 21.1 μL, and the composition of the reaction buffer (R2 buffer) was 50 mM Tris-hydrochloride buffer (pH 7.4)/15 mM magnesium acetate/0.2 μM ethylenediamine-N,N,N′,N′-tetraacetate (EDTA). To this, purified Aurora A, 100 μM of a substrate peptide, 20 μM of unlabeled adenosine triphosphate (ATP) and 0.5 μCi of [γ-^33P] labeled ATP (2,500 Ci/mmole or more) were added, and the mixture was reacted at 30° C. for 20 minutes. Then, 10 μL of 350 mM phosphate buffer was added to the reaction system to stop the reaction. The substrate peptide was adsorbed on a P81 paper filter 96-well plate and then washed with 130 mM phosphate buffer for several times. The radiation activity of the peptide was measured with a liquid scintillation counter. The [γ-^33P] labeled ATP was purchased from Amersham Biosciences Co., Ltd.
The compound to be tested was added to the reaction system such that a dilution series of the compound in dimethylsulfoxide was first prepared, and 1.1 μL of this solution was added. A control was provided by adding 1.1 μL of DMSO to the reaction system.

In a further experiment the target is T2, Aurora B (Homo sapiens, UniProt Q96GD4).
T2 construct: histidine tag (N); made in house; host or cells: Escherichia coli BL21-CodonPlus(DE3)-RIL
In words: Aurora B inhibitory action (33P-ATP Kemptide phosphorylation, filter assay). The format is biochemical. To be noted: His-tagged Aurora B, 100 μM Kemptide, 100 μM ATP, 30° C., 20 minutes. From the text: cDNA of Aurora B having histidine tag fused at the amino terminal was integrated into an expression vector, which was then highly expressed in Escherichia coli BL21-CodonPlus(DE3)-RIL cells. The Escherichia coli cells were recovered and solubilized, and then the histidine-tagged […] protein was adsorbed onto a nickel chelate column and eluted from the column with imidazole, The active fraction was desalted with a desalting column to give a pure enzyme.
For measurement of the activity of Aurora B, the substrate used was Kemptide (Leu-Arg-Arg-Ala-Ser-Leu-Gly) (SEQ.ID.NO.: 1), a synthetic peptide purchased from Sigma-Aldrich, Inc, [Certificate of analysis (Upstate, Inc.)].
Reaction was conducted by a partial modification of the method of activity measurement for Aurora A. The amount of the reaction liquid was 21.1 μL, and the composition of the reaction buffer (R2 buffer) was 50 mM Tris-hydrochloride buffer (pH 7.4)/15 mM magnesium acetate/0.2 mM ethylenediamine-N,N,N′,N′-tetraacetate (EDTA). To this, purified Aurora B, 100 μM of a substrate peptide, 100 μM of unlabeled adenosine triphosphate (ATP) and 1 μCi of [γ-^33P] labeled ATP (2,500 Ci/mmole or more) were added, and the mixture was reacted at 30° C. for 20 minutes. Then, 10 μL of 350 mM phosphate buffer was added to the reaction system to stop the reaction. The substrate peptide was adsorbed on a P81 paper filter 96-well plate and then washed with 130 mM phosphate buffer for several times. The radiation activity of the peptide was measured with a liquid scintillation counter. The [γ-^33P] labeled ATP was purchased from Amersham Biosciences Co., Ltd.

A word on the IC50: it is the concentration that gives 50% inhibition. High values mean lower potency, low ones higher potency.

T2 sequence (Q96GD4 whole entry): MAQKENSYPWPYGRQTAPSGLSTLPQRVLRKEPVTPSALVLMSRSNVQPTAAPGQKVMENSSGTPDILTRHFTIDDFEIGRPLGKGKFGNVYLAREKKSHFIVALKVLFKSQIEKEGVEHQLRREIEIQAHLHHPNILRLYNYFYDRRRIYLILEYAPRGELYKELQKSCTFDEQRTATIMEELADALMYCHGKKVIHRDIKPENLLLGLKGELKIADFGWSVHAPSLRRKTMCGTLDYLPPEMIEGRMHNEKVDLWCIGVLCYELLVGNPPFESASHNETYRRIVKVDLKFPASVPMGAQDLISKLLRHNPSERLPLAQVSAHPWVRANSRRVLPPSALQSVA

As for `Cc1cc(Nc2cc[nH]n2)nc(N2CC(NC(=O)O[C@@H](C)C(F)(F)F)[C@H](C)C2)n1` (stereo in doubt) [Example 7, (2S)-1,1,1-trifluoropropan-2-yl{(3R,4R)-4-methyl-1-[4-methyl-6-(1H-pyrazol-3-ylamino)pyrimidin-2-yl]pyrrolidin-3-yl}carbamate], the results for the IC50 against Aurora A and against Aurora B were 0.0062 µM and 0.31 µM, respectively.

For `Cc1cc(Nc2cc[nH]n2)nc(N2CC(NC(=O)OC(C)(C)C)[C@H](C)C2)n1` (stereo in doubt) [Example 9, tert-butyl {(3R,4R)-4-methyl-1-[4-methyl-6-(1H-pyrazol-3-ylamino)pyrimidin-2-yl]pyrrolidin-3-yl}carbamate], the IC50 was determined as 0.075 µM at Aurora A and 5.8 µM against Aurora B.

`Cc1cc(Nc2cc[nH]n2)nc(N2CC[C@H](NC(=O)O[C@@H](C)C(F)(F)F)C2)n1` [Example 1, (2S)-1,1,1-trifluoropropan-2-yl{(3S)-1-[4-methyl-6-(1H-pyrazol-3-ylamino)pyrimidin-2-yl]pyrrolidin-3-yl}carbamate]: the concentration for half-maximal inhibition (IC50) against Aurora A was found to be 0.0036 µM; against Aurora B, 0.21 µM.

Consider `Cc1cc(Nc2cc[nH]n2)nc(N2C[C@@H](O)[C@H](NC(=O)O[C@@H](C)C(F)(F)F)C2)n1` [Example 2, (2S)-1,1,1-trifluoropropan-2-yl{(3R,4R)-4-hydroxy-1-[4-methyl-6-(1H-pyrazol-3-ylamino)pyrimidin-2-yl]pyrrolidin-3-yl}carbamate], for which the IC50 against Aurora A came out at 0.033 µM; against Aurora B, 2.2 µM.

`Cc1cc(Nc2cc(C)[nH]n2)nc(N2CC[C@H](NC(=O)O[C@@H](C)C(F)(F)F)C2)n1` [Example 3, (2S)-1,1,1-trifluoropropan-2-yl {(3S)-1-[4-methyl-6-(5-methyl-1H-pyrazol-3-ylamino)pyrimidin-2-yl]pyrrolidin-3-yl}carbamate]: the IC50 worked out at 0.0064 µM on Aurora A and 0.19 µM on Aurora B.

`Cc1cc(Nc2cc[nH]n2)nc(N2CC[C@H](NC(=O)OC(C)(C)C(F)(F)F)C2)n1` [Example 4, 1,1,1-trifluoro-2-methylpropan-2-yl{(3S)-1-[4-methyl-6-(1H-pyrazol-3-ylamino)pyrimidin-2-yl]pyrrolidin-3-yl}carbamate]: the IC50 amounted to 0.022 µM against Aurora A and 3.8 µM on Aurora B.

As for `Cc1cc(Nc2cc(C)[nH]n2)nc(N2CC[C@H](NC(=O)OC(C)(C)C)C2)n1` [Example 6, tert-butyl {(3S)-1-[4-methyl-6-(5-methyl-1H-pyrazol-3-ylamino)pyrimidin-2-yl]pyrrolidin-3-yl}carbamate], the figures for the IC50 against Aurora A and at Aurora B were 0.028 µM and 1.8 µM, respectively.

Consider `CO[C@@H]1CN(c2nc(C)cc(Nc3cc[nH]n3)n2)C[C@H]1NC(=O)O[C@@H](C)C(F)(F)F` [Example 8, (2S)-1,1,1-trifluoropropan-2-yl{(3R,4R)-4-methoxyl-1-[4-methyl-6-(1H-pyrazol-3-ylamino)pyrimidin-2-yl]pyrrolidin-3-yl}carbamate], for which the IC50 against Aurora A was 0.037 µM; against Aurora B it was over 10 µM.

The values are drawn from patent US8492397B2, “Aminopyridine derivatives having Aurora A selective inhibitory action” (Vertex Pharmaceuticals Incorporated, priority 2009, dated 2013).
